Numbered stars: 1 amine (or outer) side, 2 acyl side, 3 side chain; on linkers, the order of the positions; unused ones are H or OH. Side chains are listed from the residue outwards. Peptide text beside a SMILES is read from it. * marks the point of attachment. C18 diacid = O=C(O)CCCCCCCCCCCCCCCCC(=O)*; γGlu = O=C(O)[C@H](CCC(=O)[*:2])N[*:1]; AEEA = NCCOCCOCC(=O)O
Experiments:
[1] = Assay (X) Chemical stability assessment by RP-UPLC; assay type: physicochemical; conditions: pH 8.15, 14 days at 37° C. vs 5° C., 333 μM
glucagon receptor = target: T1, glucagon receptor (Homo sapiens, UniProt P47871); assay: Assay (I) Glucagon activity (cAMP biosensor, FLIPR); assay type: cell-based
T1 construct: expressed in transfected cells
T1 sequence (P47871 26-477): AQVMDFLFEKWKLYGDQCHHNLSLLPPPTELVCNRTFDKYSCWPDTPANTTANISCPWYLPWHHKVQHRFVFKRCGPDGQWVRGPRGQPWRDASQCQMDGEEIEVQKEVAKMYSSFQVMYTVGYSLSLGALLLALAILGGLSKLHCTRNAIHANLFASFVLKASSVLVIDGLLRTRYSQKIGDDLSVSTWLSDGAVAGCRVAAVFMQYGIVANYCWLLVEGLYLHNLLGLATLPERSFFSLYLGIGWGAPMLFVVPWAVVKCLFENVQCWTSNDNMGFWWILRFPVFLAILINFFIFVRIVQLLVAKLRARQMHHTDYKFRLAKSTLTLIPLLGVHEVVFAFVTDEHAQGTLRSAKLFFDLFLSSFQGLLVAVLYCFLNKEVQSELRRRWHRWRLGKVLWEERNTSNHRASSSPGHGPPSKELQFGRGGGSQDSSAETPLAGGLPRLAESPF

Structure (SMILES) | Chemical stability [Purity loss/14 days 37 C.] [1] [%] | EC50 (glucagon receptor) [nM]
CC(C)C[C@H](NC(=O)[C@H](Cc1ccc(O)cc1)NC(=O)[C@H](CCCCN)NC(=O)[C@H](CO)NC(=O)[C@H](Cc1ccc(O)cc1)NC(=O)[C@H](CC(=O)O)NC(=O)[C@H](CO)NC(=O)[C@@H](NC(=O)[C@H](Cc1ccccc1)NC(=O)[C@@H](NC(=O)CNC(=O)[C@H](CCC(N)=O)NC(=O)[C@H](CO)NC(=O)[C@@H](N)Cc1c[nH]cn1)[C@@H](C)O)[C@@H](C)O)C(=O)N[C@@H](CC(=O)O)C(=O)N[C@@H](C)C(=O)N[C@@H](CCCNC(=N)N)C(=O)N[C@@H](CCCNC(=N)N)C(=O)N[C@@H](C)C(=O)N[C@@H](CCC(N)=O)C(=O)N[C@@H](CC(=O)O)C(=O)N[C@@H](Cc1ccccc1)C(=O)N[C@H](C(=O)N[C@@H](CCCCNC(=O)CC[C@H](NC(=O)CC[C@H](NC(=O)COCCOCCNC(=O)COCCOCCNC(=O)CC[C@H](NC(=O)CCCCCCCCCCCCCCCCC(=O)O)C(=O)O)C(=O)O)C(=O)O)C(=O)N[C@@H](Cc1c[nH]c2ccccc12)C(=O)N[C@@H](CC(C)C)C(=O)N[C@@H](CC(C)C)C(=O)N[C@@H](CCC(N)=O)C(=O)N[C@H](C(=O)O)[C@@H](C)O)C(C)C [Example 56, N^ε24-[(4S)-4-carboxy-4-[[(4S)-4-carboxy-4-[[2-[2-[2-[[2-[2-[2-[[(4S)-4-carboxy-4-(17-carboxyheptadecanoylamino)butanoyl]amino]ethoxy]ethoxy]acetyl]amino]ethoxy]ethoxy]acetyl]amino]butanoyl]amino]butanoyl]-[Ala16,Lys24,Leu27,Gln28]-Glucagon] | 8.1 | 0.192
CC(C)C[C@H](NC(=O)[C@H](Cc1ccc(O)cc1)NC(=O)[C@H](CCCCN)NC(=O)[C@H](CO)NC(=O)[C@H](Cc1ccc(O)cc1)NC(=O)[C@H](CC(=O)O)NC(=O)[C@H](CO)NC(=O)[C@@H](NC(=O)[C@H](Cc1ccccc1)NC(=O)[C@@H](NC(=O)CNC(=O)[C@H](CCC(N)=O)NC(=O)[C@H](CO)NC(=O)[C@@H](N)Cc1c[nH]cn1)[C@@H](C)O)[C@@H](C)O)C(=O)N[C@@H](CC(=O)O)C(=O)N[C@@H](C)C(=O)N[C@@H](CCCNC(=N)N)C(=O)N[C@@H](CCCNC(=N)N)C(=O)N[C@@H](C)C(=O)N[C@@H](CCC(N)=O)C(=O)N[C@@H](CC(=O)O)C(=O)N[C@@H](Cc1ccccc1)C(=O)N[C@H](C(=O)N[C@@H](CCCCNC(=O)CC[C@H](NC(=O)CC[C@H](NC(=O)COCCOCCNC(=O)COCCOCCNC(=O)CC[C@H](NC(=O)CCCCCCCCCCCCCCCCC(=O)O)C(=O)O)C(=O)O)C(=O)O)C(=O)N[C@@H](Cc1c[nH]c2ccccc12)C(=O)N[C@@H](CC(C)C)C(=O)N[C@@H](CCC(=O)O)C(=O)N[C@@H](CO)C(=O)N[C@H](C(=O)O)[C@@H](C)O)C(C)C [Example 57, N^ε24-[(4S)-4-carboxy-4-[[(4S)-4-carboxy-4-[[2-[2-[2-[[2-[2-[2-[[(4S)-4-carboxy-4-(17-carboxyheptadecanoylamino)butanoyl]amino]ethoxy]ethoxy]acetyl]amino]ethoxy]ethoxy]acetyl]amino]butanoyl]amino]butanoyl]-[Ala16,Lys24,Glu27,Ser28]-Glucagon] | 7.9 | 0.07
CC(C)C[C@H](NC(=O)[C@H](Cc1ccc(O)cc1)NC(=O)[C@H](CCCCN)NC(=O)[C@H](CO)NC(=O)[C@H](Cc1ccc(O)cc1)NC(=O)[C@H](CC(=O)O)NC(=O)[C@H](CO)NC(=O)[C@@H](NC(=O)[C@H](Cc1ccccc1)NC(=O)[C@@H](NC(=O)CNC(=O)[C@H](CCC(N)=O)NC(=O)[C@H](CO)NC(=O)[C@@H](N)Cc1c[nH]cn1)[C@@H](C)O)[C@@H](C)O)C(=O)N[C@@H](CCC(=O)O)C(=O)N[C@@H](CO)C(=O)N[C@@H](CCCNC(=N)N)C(=O)N[C@@H](CCCNC(=N)N)C(=O)N[C@@H](C)C(=O)N[C@@H](CCC(N)=O)C(=O)N[C@@H](CC(=O)O)C(=O)N[C@@H](Cc1ccccc1)C(=O)N[C@H](C(=O)N[C@@H](CCCCNC(=O)CC[C@H](NC(=O)CC[C@H](NC(=O)COCCOCCNC(=O)COCCOCCNC(=O)CC[C@H](NC(=O)CCCCCCCCCCCCCCCCC(=O)O)C(=O)O)C(=O)O)C(=O)O)C(=O)N[C@@H](Cc1c[nH]c2ccccc12)C(=O)N[C@@H](CC(C)C)C(=O)N[C@@H](CC(C)C)C(=O)N[C@@H](CO)C(=O)N[C@H](C(N)=O)[C@@H](C)O)C(C)C [Example 58, N^ε24-[(4S)-4-carboxy-4-[[(4S)-4-carboxy-4-[[2-[2-[2-[[2-[2-[2-[[(4S)-4-carboxy-4-(17-carboxyheptadecanoylamino)butanoyl]amino]ethoxy]ethoxy]acetyl]amino]ethoxy]ethoxy]acetyl]amino]butanoyl]amino]butanoyl]-[Glu15,Lys24,Leu27,Ser28]-Glucagon amide] | 7.3 | 0.134
CC(C)C[C@H](NC(=O)[C@H](Cc1c[nH]c2ccccc12)NC(=O)[C@H](CCCCNC(=O)CC[C@H](NC(=O)COCCOCCNC(=O)COCCOCCNC(=O)CC[C@H](NC(=O)CC[C@H](NC(=O)CCCCCCCCCCCCCCCCC(=O)O)C(=O)O)C(=O)O)C(=O)O)NC(=O)[C@@H](NC(=O)[C@H](Cc1ccccc1)NC(=O)[C@H](CCC(=O)O)NC(=O)[C@H](CCC(N)=O)NC(=O)[C@H](C)NC(=O)[C@H](CCCNC(=N)N)NC(=O)[C@H](CCCNC(=N)N)NC(=O)[C@@H](NC(=O)[C@H](CC(=O)O)NC(=O)[C@H](CC(C)C)NC(=O)[C@H](Cc1ccc(O)cc1)NC(=O)[C@H](CCCCN)NC(=O)[C@H](CO)NC(=O)[C@@H](NC(=O)[C@H](CC(=O)O)NC(=O)[C@H](CO)NC(=O)[C@@H](NC(=O)[C@H](Cc1ccccc1)NC(=O)[C@@H](NC(=O)CNC(=O)[C@H](CCC(N)=O)NC(=O)[C@H](CO)NC(=O)[C@@H](N)Cc1c[nH]cn1)[C@@H](C)O)[C@@H](C)O)C(C)C)[C@@H](C)O)C(C)C)C(=O)N[C@@H](CC(C)C)C(=O)N[C@@H](CO)C(=O)N[C@H](C(N)=O)[C@@H](C)O [Example 61, N^ε24-[(4S)-4-carboxy-4-[[2-[2-[2-[[2-[2-[2-[[(4S)-4-carboxy-4-[[(4S)-4-carboxy-4-(17-carboxyheptadecanoylamino)butanoyl]amino]butanoyl]amino]ethoxy]ethoxy]acetyl]amino]ethoxy]ethoxy]acetyl]amino]butanoyl]-[Val10,Thr16,Glu21,Lys24,Leu27,Ser28]-Glucagon amide] (H-HSQGTFTSDVSKYLDTRRAQEFVK([γGlu-AEEA-AEEA-γGlu-γGlu-C18 diacid])WLLST-NH2) | 6.2 | 0.156
CC(C)C[C@H](NC(=O)[C@H](Cc1c[nH]c2ccccc12)NC(=O)[C@H](CCCCNC(=O)COCCOCCNC(=O)COCCOCCNC(=O)CC[C@H](NC(=O)CC[C@H](NC(=O)CC[C@H](NC(=O)CCCCCCCCCCCCCCCCC(=O)O)C(=O)O)C(=O)O)C(=O)O)NC(=O)[C@@H](NC(=O)[C@H](Cc1ccccc1)NC(=O)[C@H](CCC(=O)O)NC(=O)[C@H](CCC(N)=O)NC(=O)[C@H](C)NC(=O)[C@H](CCCNC(=N)N)NC(=O)[C@H](CCCNC(=N)N)NC(=O)[C@@H](NC(=O)[C@H](CC(=O)O)NC(=O)[C@H](CC(C)C)NC(=O)[C@H](Cc1ccc(O)cc1)NC(=O)[C@H](CCCCN)NC(=O)[C@H](CO)NC(=O)[C@@H](NC(=O)[C@H](CC(=O)O)NC(=O)[C@H](CO)NC(=O)[C@@H](NC(=O)[C@H](Cc1ccccc1)NC(=O)[C@@H](NC(=O)CNC(=O)[C@H](CCC(N)=O)NC(=O)[C@H](CO)NC(=O)[C@@H](N)Cc1c[nH]cn1)[C@@H](C)O)[C@@H](C)O)C(C)C)[C@@H](C)O)C(C)C)C(=O)N[C@@H](CC(C)C)C(=O)N[C@@H](CO)C(=O)N[C@H](C(=O)O)[C@@H](C)O [Example 62, N^ε24-[2-[2-[2-[[2-[2-[2-[[(4S)-4-carboxy-4-[[(4S)-4-carboxy-4-[[(4S)-4-carboxy-4-(17-carboxyheptadecanoylamino)butanoyl]amino]butanoyl]amino]butanoyl]amino]ethoxy]ethoxy]acetyl]amino]ethoxy]ethoxy]acetyl]-[Val10,Thr16,Glu21,Lys24,Leu27,Ser28]-Glucagon] (H-HSQGTFTSDVSKYLDTRRAQEFVK([AEEA-AEEA-γGlu-γGlu-γGlu-C18 diacid])WLLST-OH) | 5.6 | 0.08
CC(C)C[C@H](NC(=O)[C@H](Cc1c[nH]c2ccccc12)NC(=O)[C@H](CCCCNC(=O)CC[C@H](NC(=O)COCCOCCNC(=O)COCCOCCNC(=O)CC[C@H](NC(=O)CC[C@H](NC(=O)CCCCCCCCCCCCCCCCC(=O)O)C(=O)O)C(=O)O)C(=O)O)NC(=O)[C@@H](NC(=O)[C@H](Cc1ccccc1)NC(=O)[C@H](CCC(=O)O)NC(=O)[C@H](CCC(N)=O)NC(=O)[C@H](C)NC(=O)[C@H](CCCNC(=N)N)NC(=O)[C@H](CCCNC(=N)N)NC(=O)[C@@H](NC(=O)[C@H](CC(=O)O)NC(=O)[C@H](CC(C)C)NC(=O)[C@H](Cc1ccc(O)cc1)NC(=O)[C@H](CCCNC(=N)N)NC(=O)[C@H](CO)NC(=O)[C@@H](NC(=O)[C@H](CC(=O)O)NC(=O)[C@H](CO)NC(=O)[C@@H](NC(=O)[C@H](Cc1ccccc1)NC(=O)[C@@H](NC(=O)CNC(=O)[C@H](CCC(N)=O)NC(=O)[C@H](CO)NC(=O)[C@@H](N)Cc1c[nH]cn1)[C@@H](C)O)[C@@H](C)O)C(C)C)[C@@H](C)O)C(C)C)C(=O)N[C@@H](CC(C)C)C(=O)N[C@@H](CO)C(=O)N[C@H](C(=O)O)[C@@H](C)O [Example 64, N^ε24-[(4S)-4-carboxy-4-[[2-[2-[2-[[2-[2-[2-[[(4S)-4-carboxy-4-[[(4S)-4-carboxy-4-(17-carboxyheptadecanoylamino)butanoyl]amino]butanoyl]amino]ethoxy]ethoxy]acetyl]amino]ethoxy]ethoxy]acetyl]amino]butanoyl]-[Val10,Arg12,Thr16,Glu21,Lys24,Leu27,Ser28]-Glucagon] (H-HSQGTFTSDVSRYLDTRRAQEFVK([γGlu-AEEA-AEEA-γGlu-γGlu-C18 diacid])WLLST-OH) | 5.1 | 0.176
